According to patent US20220402925A1, “COMPOUNDS AND METHODS FOR THE TREATMENT OF CYSTIC FIBROSIS” (Flatley Discovery Lab, LLC, priority 2019, published 2022):

Molecular target: T1, F508del CFTR (Homo sapiens, UniProt P13569, DEL508-508)
T1 construct: Primary CF airway epithelial cells were obtained from the UNC Cystic Fibrosis Tissue Procurement and Cell Culture Core; host or cells: primary CF airway epithelial cells
Assay: Equivalent current assay in primary CF airway epithelial cells (Corrector Activity, NAUC normalized to 3 μM VX809)
Assay type: cell-based
Conditions: NAUC as % of positive control (VX-809)
Outline: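 Readout is NAUC: current area from forskolin/potentiator addition until CFTR-172, minus vehicle, relative to 3 μM VX809 (=1.0). Cells were primary CF epithelia at air-liquid interface ≥4 weeks, given basolateral compound for 24 h at 37° C; median of n≥4 replicates, sigmoid fit with nH fixed at 1.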

T1 sequence (P13569 with tags, fused parts or gaps DEL508-508): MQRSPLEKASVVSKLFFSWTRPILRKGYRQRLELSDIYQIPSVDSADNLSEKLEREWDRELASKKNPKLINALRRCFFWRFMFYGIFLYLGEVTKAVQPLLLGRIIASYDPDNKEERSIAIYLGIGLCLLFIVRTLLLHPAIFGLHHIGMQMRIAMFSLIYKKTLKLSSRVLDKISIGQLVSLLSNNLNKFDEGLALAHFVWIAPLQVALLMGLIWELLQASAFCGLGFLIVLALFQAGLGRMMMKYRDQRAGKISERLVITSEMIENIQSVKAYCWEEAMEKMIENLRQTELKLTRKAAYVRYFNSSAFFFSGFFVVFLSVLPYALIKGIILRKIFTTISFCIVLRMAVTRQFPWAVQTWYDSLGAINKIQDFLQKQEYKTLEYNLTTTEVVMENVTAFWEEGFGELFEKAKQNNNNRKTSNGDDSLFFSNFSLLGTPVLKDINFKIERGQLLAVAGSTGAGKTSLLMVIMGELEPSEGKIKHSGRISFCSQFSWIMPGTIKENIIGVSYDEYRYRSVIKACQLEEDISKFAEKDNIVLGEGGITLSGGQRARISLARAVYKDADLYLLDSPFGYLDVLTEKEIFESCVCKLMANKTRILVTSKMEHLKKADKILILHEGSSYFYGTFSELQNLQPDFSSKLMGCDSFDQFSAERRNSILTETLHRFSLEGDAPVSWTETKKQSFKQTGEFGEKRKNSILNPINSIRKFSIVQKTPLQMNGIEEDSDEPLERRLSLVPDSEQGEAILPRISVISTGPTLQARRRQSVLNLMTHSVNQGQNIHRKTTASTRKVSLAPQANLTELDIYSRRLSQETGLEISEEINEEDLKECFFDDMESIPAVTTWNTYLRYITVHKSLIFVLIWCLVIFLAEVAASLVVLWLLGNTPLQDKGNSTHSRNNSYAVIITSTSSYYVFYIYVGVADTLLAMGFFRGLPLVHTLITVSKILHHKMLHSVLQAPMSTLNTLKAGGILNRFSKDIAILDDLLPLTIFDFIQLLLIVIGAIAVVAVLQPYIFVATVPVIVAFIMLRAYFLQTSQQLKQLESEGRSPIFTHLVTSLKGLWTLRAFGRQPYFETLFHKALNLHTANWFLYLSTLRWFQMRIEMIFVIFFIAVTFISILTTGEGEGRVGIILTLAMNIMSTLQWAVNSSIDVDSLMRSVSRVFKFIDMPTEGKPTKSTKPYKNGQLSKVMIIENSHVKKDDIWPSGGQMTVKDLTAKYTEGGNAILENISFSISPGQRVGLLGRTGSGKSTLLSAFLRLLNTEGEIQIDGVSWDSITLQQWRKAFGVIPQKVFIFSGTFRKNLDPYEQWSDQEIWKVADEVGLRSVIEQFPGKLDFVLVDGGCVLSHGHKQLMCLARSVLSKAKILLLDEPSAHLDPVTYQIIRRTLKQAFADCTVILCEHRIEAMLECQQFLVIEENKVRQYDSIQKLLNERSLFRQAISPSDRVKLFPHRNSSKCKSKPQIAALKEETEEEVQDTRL

| SMILES | Corr Activity (NAUC) |
| --- | --- |
| CCc1cc2c(cc1N(CC)C(=O)Cn1nc(-c3cccc(C#N)c3)c3occc3c1=O)OC(F)(F)O2 [Example 56] | + (NAUC<40% of positive control) |
| CCN(C(=O)Cn1nc(-c2cc(Cl)cc(C#N)c2)c2occc2c1=O)c1cc2c(cc1C)OC(F)(F)O2 [Example 169] | +++ (NAUC>70% of positive control) |
| CCN(C(=O)Cn1nc(-c2cc(C)cc(Cl)c2)c2occc2c1=O)c1ccc2c(c1)OC(F)(F)O2 [Example 79] | +++ (NAUC>70% of positive control) |
| N#Cc1cccc(-c2nn(CC(=O)N(c3ccc4c(c3)OC(F)(F)O4)C3CC3)c(=O)c3nc[nH]c23)c1 [Example 372] | +++ (NAUC>70% of positive control) |
| CCN(C(=O)Cn1nc(-c2cccc(C#N)c2)c2occc2c1=O)c1ccc2c(c1C)OC(F)(F)O2 [Example 54] | +++ (NAUC>70% of positive control) |
| Cc1cc2c(=O)n(CC(=O)N(C)c3ccc4c(c3)OC(F)(F)O4)nc(-c3cc(Cl)cc(C#N)c3)c2o1 [Example 72] | +++ (NAUC>70% of positive control) |
| CN(C(=O)Cn1nc(-c2cccc(OC(C)(C)C)c2)c2oc(C(=O)NC(C)(C)C)cc2c1=O)c1ccc2c(c1)OC(F)(F)O2 [Example 123] | + (NAUC<40% of positive control) |
| Cc1cc2c(=O)n(CC(=O)N(c3ccc4c(c3)OC(F)(F)O4)C3CC3)nc(-c3cc(Cl)cc(Cl)c3)c2o1 [Example 77] | +++ (NAUC>70% of positive control) |
| CCN(C(=O)Cn1nc(-c2cc(F)cc(C#N)c2)c2occc2c1=O)c1ccc2c(c1C)OC(F)(F)O2 [Example 173] | +++ (NAUC>70% of positive control) |
| CCN(C(=O)Cn1nc(-c2cc(C)cc(F)c2)c2[nH]cnc2c1=O)c1ccc2c(c1)OC(F)(F)O2 [Example 262] | +++ (NAUC>70% of positive control) |
| CCN(C(=O)Cn1nc(-c2cccc(C#N)c2)c2[nH]ncc2c1=O)c1ccc2c(c1)OC(F)(F)O2 [Example 492, 2-(7-(3-cyanophenyl)-4-oxo-1,4-dihydro-5H-pyrazolo[3,4-d]pyridazin-5-yl)-N-(2,2-difluorobenzo[d][1,3]dioxol-5-yl)-N-ethylacetamide] | ++ (NAUC 70-40% of positive control) |
| CN(C(=O)Cn1nc(-c2cccc(F)c2)c2cn[nH]c2c1=O)c1ccc2c(c1)OC(F)(F)O2 [Example 497] | + (NAUC<40% of positive control) |
| Cc1cc(C#N)cc(-c2nn(CC(=O)N(C)c3ccc4c(c3)OC(F)(F)O4)c(=O)c3cc(C(=O)NC(C)(C)C)oc23)c1 [Example 132] | +++ (NAUC>70% of positive control) |
| O=C(Cn1nc(-c2cccc(F)c2)c2[nH]cnc2c1=O)N(c1ccc2c(c1)OC(F)(F)O2)C1CC1 [Example 370] | + (NAUC<40% of positive control) |
| CCN(C(=O)Cn1nc(-c2cc(F)cc(C#N)c2)c2[nH]cnc2c1=O)c1ccc2c(c1)OC(F)(F)O2 [Example 242] | +++ (NAUC>70% of positive control) |
| CCN(C(=O)Cn1nc(-c2ccc(S(=O)(=O)NC(C)(C)C)c(C)c2)c2[nH]cnc2c1=O)c1ccc2c(c1)OC(F)(F)O2 [Example 355] | + (NAUC<40% of positive control) |
| CCN(C(=O)Cn1nc(-c2cc(F)cc(F)c2)c2oc(C)cc2c1=O)c1ccc2c(c1)OC(F)(F)O2 [Example 74] | +++ (NAUC>70% of positive control) |
| CCN(C(=O)Cn1nc(-c2cccc(C#N)c2)c2cn[nH]c2c1=O)c1ccc2c(c1)OC(F)(F)O2 [Example 493, 2-(4-(3-cyanophenyl)-7-oxo-1,7-dihydro-6H-pyrazolo[3,4-d]pyridazin-6-yl)-N-(2,2-difluorobenzo[d][1,3]dioxol-5-yl)-N-ethylacetamide] | ++ (NAUC 70-40% of positive control) |
| CCN(C(=O)Cn1nc(-c2cccc(C#N)c2)c2oc(Cl)cc2c1=O)c1ccc2c(c1)OC(F)(F)O2 [Example 63] | ++ (NAUC 70-40% of positive control) |
| CCN(C(=O)Cn1nc(-c2cccc(Cl)c2)c2[nH]ccc2c1=O)c1ccc2c(c1)OC(F)(F)O2 [Example 502] | +++ (NAUC>70% of positive control) |
| O=C(Cn1nc(-c2cccc(Cl)c2)c2[nH]cnc2c1=O)N(c1ccc2c(c1)OC(F)(F)O2)C1CC1 [Example 371] | ++ (NAUC 70-40% of positive control) |
| CCN(C(=O)Cn1nc(-c2ccc(N3CCCC3)c(C#N)c2)c2[nH]cnc2c1=O)c1ccc2c(c1)OC(F)(F)O2 [Example 352] | +++ (NAUC>70% of positive control) |
| CCN(C(=O)Cn1nc(-c2cc(F)cc(F)c2)c2[nH]cnc2c1=O)c1ccc2c(c1)OC(F)(F)O2 [Example 258] | +++ (NAUC>70% of positive control) |
| CCN(C(=O)Cn1nc(-c2cc(F)cc(Cl)c2)c2oc(C3CC3)cc2c1=O)c1ccc2c(c1)OC(F)(F)O2 [Example 223] | +++ (NAUC>70% of positive control) |
| O=C(Cn1nc(-c2cccc(F)c2)c2occc2c1=O)N1CCCc2c1ccc1c2OC(F)(F)O1 [Example 102] | ++ (NAUC 70-40% of positive control) |
| CN(C(=O)Cn1nc(-c2cccc(C#N)c2)c2cn[nH]c2c1=O)c1ccc2c(c1)OC(F)(F)O2 [Example 494] | ++ (NAUC 70-40% of positive control) |

| SMILES | Corr Activity (NAUC) |
| --- | --- |
| Cc1nc2ccc(N(C)C(=O)Cn3nc(-c4cccc(OC(F)(F)F)c4)c4occc4c3=O)cc2o1 [Example 93] | + (NAUC<40% of positive control) |
| CCN(C(=O)Cn1nc(-c2cc(F)cc(C#N)c2)c2occ(C(F)(F)F)c2c1=O)c1cc2c(cc1C)OC(F)(F)O2 [Example 179] | ++ (NAUC 70-40% of positive control) |
| CCN(C(=O)Cn1nc(-c2cc(F)cc(C(F)(F)F)c2)c2[nH]cnc2c1=O)c1ccc2c(c1)OC(F)(F)O2 [Example 268] | ++ (NAUC 70-40% of positive control) |
| CCN(C(=O)Cn1nc(-c2cc(F)cc(OCC(C)C)c2)c2[nH]cnc2c1=O)c1ccc2c(c1)OC(F)(F)O2 [Example 264] | ++ (NAUC 70-40% of positive control) |
| CN(C(=O)Cn1nc(-c2cccc(Cl)c2)c2oc(C3CC3)cc2c1=O)c1ccc2c(c1)OC(F)(F)O2 [Example 219] | +++ (NAUC>70% of positive control) |
| CN(C(=O)Cn1nc(-c2cccc(OC(F)(F)F)c2)c2oc(C(=O)NC(C)(C)C)cc2c1=O)c1ccc2c(c1)OC(F)(F)O2 [Example 125] | ++ (NAUC 70-40% of positive control) |
| CC(C)(C)NC(=O)c1cc2c(=O)n(CC(=O)N3CCCc4c3ccc3c4OC(F)(F)O3)nc(-c3cccc(C#N)c3)c2o1 [Example 129] | ++ (NAUC 70-40% of positive control) |
| CCN(C(=O)Cn1nc(-c2cc(F)cc(C#N)c2)c2oc(C)cc2c1=O)c1ccc2c(c1)OC(F)(F)O2 [Example 76] | +++ (NAUC>70% of positive control) |
| CCN(C(=O)Cn1nc(-c2ccc3c(c2)ncn3-c2ccccc2)c2[nH]cnc2c1=O)c1ccc2c(c1)OC(F)(F)O2 [Example 313] | ++ (NAUC 70-40% of positive control) |
| CCN(C(=O)Cn1nc(-c2cc(OC)cc(OC(F)(F)F)c2)c2[nH]cnc2c1=O)c1ccc2c(c1)OC(F)(F)O2 [Example 274] | + (NAUC<40% of positive control) |
| CCN(C(=O)Cn1nc(-c2cc(C#N)cc(C(F)F)c2)c2oc(C(F)F)cc2c1=O)c1ccc2c(c1)OC(F)(F)O2 [Example 198] | ++ (NAUC 70-40% of positive control) |
| CCN(C(=O)Cn1nc(-c2ccc(C(=O)OC)c(Cl)c2)c2[nH]cnc2c1=O)c1ccc2c(c1)OC(F)(F)O2 [Example 316] | ++ (NAUC 70-40% of positive control) |
| CCN(C(=O)Cn1nc(-c2cc(F)cc(Cl)c2)c2occc2c1=O)c1ccc2c(c1)OC(F)(F)O2 [Example 176] | +++ (NAUC>70% of positive control) |
| CCN(C(=O)Cn1nc(-c2ccc(C)c(CO)c2)c2[nH]cnc2c1=O)c1ccc2c(c1)OC(F)(F)O2 [Example 337] | + (NAUC<40% of positive control) |
| O=C(Cn1nc(-c2ccc(N3CCCC3)cc2)c2[nH]cnc2c1=O)N(c1ccc2c(c1)OC(F)(F)O2)C1CC1 [Example 490] | + (NAUC<40% of positive control) |
| O=C(Cn1nc(-c2cccc(Cl)c2)c2occc2c1=O)N1CCCc2c1ccc1c2OC(F)(F)O1 [Example 51] | ++ (NAUC 70-40% of positive control) |
| CCN(C(=O)Cn1nc(-c2cc(C)cc(C#N)c2)c2occc2c1=O)c1cc2c(cc1C)OC(F)(F)O2 [Example 164] | +++ (NAUC>70% of positive control) |
| CCN(C(=O)Cn1nc(-c2cc(C)cc(C(F)(F)F)c2)c2[nH]cnc2c1=O)c1ccc2c(c1)OC(F)(F)O2 [Example 279] | ++ (NAUC 70-40% of positive control) |
| N#Cc1cccc(-c2nn(CC(=O)N3CC4(CC4)c4c3ccc3c4OC(F)(F)O3)c(=O)c3ccoc23)c1 [Example 58] | + (NAUC<40% of positive control) |
| CCN(C(=O)Cn1nc(-c2cccc(Cl)c2)c2sccc2c1=O)c1ccc2c(c1)OC(F)(F)O2 [Example 5] | +++ (NAUC>70% of positive control) |
| CN(C(=O)Cn1nc(-c2cccc(C(C)(C)C)c2)c2oc(C(=O)NC(C)(C)C)cc2c1=O)c1ccc2c(c1)OC(F)(F)O2 [Example 126] | +++ (NAUC>70% of positive control) |
| CCN(C(=O)Cn1nc(-c2cc(Cl)cc(C#N)c2)c2oc(C3CC3)cc2c1=O)c1ccc2c(c1)OC(F)(F)O2 [Example 224] | +++ (NAUC>70% of positive control) |
| CCN(C(=O)Cn1nc(-c2ccc(O)c(Cl)c2)c2[nH]cnc2c1=O)c1ccc2c(c1)OC(F)(F)O2 [Example 327] | + (NAUC<40% of positive control) |
| CCN(C(=O)Cn1nc(-c2cccc(Cl)c2)c2oc(C(F)F)cc2c1=O)c1ccc2c(c1)OC(F)(F)O2 [Example 186] | +++ (NAUC>70% of positive control) |
| CCN(C(=O)Cn1nc(-c2cccc(C#N)c2)c2occc2c1=O)c1ccc2c(c1F)OC(F)(F)O2 [Example 60] | +++ (NAUC>70% of positive control) |
